Structures are written as SMILES. Read-outs that look alike come from different tables or passages of the source.

The values below come from patent publication US11632953B2, “Method for controlling hematophagous or sap-feeding arthropods” (Board of Supervisors of Louisiana State University and …, priority 2016, dated 2023).

For test [1], the system named is Amblyomma americanum. Put plainly: tick toxicity (compound in blood meal or injected). The test is classed as in vivo. Conditions: for mortality rate: in blood meal. An excerpt:
A failure to osmoregulate during blood feeding would result in a buildup of ions at toxic concentrations into the hemocoel.

For test [2], the system named is sugar and bitter cells of mosquito mouthparts. Put plainly: electrophysiological recordings of maxilla gustatory sensilla.
The test system of test [3] is Aedes aegypti mosquitoes. In words: saliva collection from live mosquito after injection. Format: in vivo. Conditions: control 1.4 μL. The source says:
We investigated the influence of Katp modulators on mosquito salivation and blood feeding. We employed an established assay to collect the saliva from a live mosquito.

Test [4] relates to Aedes aegypti mosquitoes. In words: mosquito blood feeding with compound exposure. Format: in vivo. Conditions: compound added to blood. An excerpt: Tolbutamide and glybenclamide are inhibitors of ATP-gated Kir channels.
In test [5] the test system is Chickungunya virus. In words: infection of mosquitoes by virus after blood meal. Conditions: in vivo.
In test [6] the test system is Amblyomma americanum. Put plainly: tick blood feeding with compound included in the blood meal. Format: in vivo. Conditions: for average detachments during blood feeding: control 0.11.
Source text: All ticks were observed attempting to feed by including rhodamine B, a fluorescent tracer, in the blood meal.
Test [7] deals with isolated tick salivary gland. Put plainly: fluid secretion (salivation) in the isolated tick salivary gland, modified Ramsay assay. The arrangement: species or system Amblyomma americanum. Conditions: for total salivation volume: control 150 nL/5 min; for IC50: read-out: IC50 inhibition of salivation.
Test [8] relates to isolated tick salivary gland. In words: ion secretion in saliva of the isolated tick salivary gland. Details: species or system Amblyomma americanum.
The test system of test [9] is mosquito Kin channels. To be noted: in vitro; cited from earlier work.
For test [10], the system named is mosquitoes. To be noted: in vivo; cited from earlier work.

As to `CC(N=C(NC#N)Nc1ccncc1)C(C)(C)C` (racemic) [pinacidil, (±)-N-Cyano-N′-4-pyridinyl-N″-(1,2,2-trimethylpropyl)guanidine], the mortality rate in [1] (day 1) is recorded as 65%; in test [1] (day 2) it was 72%; in test [1] (day 3), 88%; in test [1] (day 4) it was 94%; in test [1] (day 5), 99%. In addition, the “response of gustatory sensilla cells” value in test [2] was “elicits a spike in the sugar and bitter cells”. In test [3], the secreted saliva volume was 0.3 µL. Further, the “reduction of total volume of blood consumed” value in [4] is recorded as 99%. In addition, in test [5], the “infection of mosquitoes by the virus after feeding on a blood meal” value is on record as “inhibited infection”. Moreover, the “reduction of volume of blood ingested” value in [6] (400 μM in blood meal, throughout the course of feeding) is recorded as “up to 15 fold”. For the same compound, in test [6], the “average detachments during blood feeding” value is reported as 2.1 times per feeding. Also, the “volume of blood ingested” value in [6] (day 6 of feeding, 400 μM, control 16±4) amounted to 1.2±0.3 μL per day. For the same compound, the total salivation volume in test [7] (600 μM pinacidil after pre-exposure to ATP) is reported as 142 nL/5 min; in [7] (600 μM pinacidil) it was 40 nL/5 min. For the same compound, in [7] (10 minutes, isolated tick salivary gland), the “Effect on Salivation at 10 minutes (reduction)” value is listed as “Reduced ~98%”. The IC50 in [7] (Amblyomma americanum, 10 min, 10 min of salivation) stood at 320000 nM; in [7] (Amblyomma americanum, 20 min, 20 min of salivation), 250000 nM; in [7] (Amblyomma americanum, 0.5 h, 30 min of salivation), 120000 nM. Besides, the “reduction of salivary output / saliva secretion compared to control” value in [7] (isolated tick salivary gland) was 97%. Moreover, the “cations (K+ and Na+) concentrations excreted from the salivary glands” value in [8] is recorded as “significant reduction”.

In the case of `Cn1c(=O)c2c(ncn2Cc2ccc(C(C)(C)C)cc2)n(C)c1=O` [VU063], in test [1] (exposed while feeding), the “pattern of mortality as a function of time compared with pinacidil” value is given as “nearly-identical pattern of mortality”. Further, the secreted saliva volume in test [3] is 0.1 µL. Further, the “reduction of total volume of blood consumed” value in test [4] is recorded as 99%. In addition, the tick body weights entry in [6] (VU063 at 100 μM in blood meal) is on record as “not statistically different from that of unfed ticks”. Further, the “volume of ingested blood” value in test [6] (compound in blood meal, VU063 at 100 μM) is listed as “below the limits of detection”. Also, the “average detachments during blood feeding” value in test [6] is 3.6 times per feeding. Further, in [7], the “effect on salivation in the isolated salivary gland” value is listed as “eliminated salivation”. The concentration for half-maximal inhibition (IC50) was 772 nM in [7] (10 min of salivation), 560 nM in test [7] (20 min of salivation) and 410 nM in test [7] (30 min of salivation). The “effect of pre-exposure of the gland to ATP on inhibition of salivation” value in [7] (pre-exposure to ATP) is “negated the inhibitory effect”. In addition, the “cations (K+ and Na+) concentrations excreted from the salivary glands” value in test [8] is “significant reduction”.

On to `CCC(=O)N1c2ccc(S(=O)(=O)Nc3cccc(OC)c3)cc2CC1C` (stereo not shown) [VU625], for which, in test [9], the concentration for half-maximal inhibition (IC50) is roughly 100 nM. The “topical toxicity to mosquitoes” value in [10] is “not topically toxic”.
